{"source": "patent US4316884A", "about": "“Sustained release pharmaceutical formulation” (Adria Laboratories, Inc., priority 1980, dated 1982)", "key": {"[1]": {"conditions": "human, in vivo"}, "[2]": {"conditions": "acidic pH of the stomach, unionized; cited from earlier work"}, "[3]": {"assay": "clinical analgesic/anti-inflammatory efficacy and side effects in man", "assay_type": "in vivo", "description": "The analgesic dose for indoprofen in man is low in comparison to the anti-inflammatory dose, i.e., in the order of 100 to 600 mg. per day.\nHowever, the dose necessary for indoprofen to exert an anti-inflammatory activity is higher than the analgesic dose, i.e., in the order of 800 to 1200 mg. per day. […] At this dose gastrointestinal ulceration and other side effects are […]."}, "[4]": {"conditions": "in vivo; cited from earlier work"}, "[5]": {"assay": "plasma levels of indoprofen in mice after oral gavage (HPLC-UV)", "assay_type": "in vivo", "description": "Plasma levels of indoprofen are determined in adult mice (22-25 g.) following oral gavage of either pure drug or microencapsulated drug. Drugs are administered at 1% of the body weight. Each treatment group in a single experiment contains four animals and the data is pooled for evaluation. Animals are sacrificed by decapitation. Blood from each treatment group is collected and pooled in heparinized tubes. Plasma is collected and frozen for assay of indoprofen concentration. Plasma indoprofen concentration is determined by high pressure liquid chromatography fitted with a UV detector; concentration is determined at max. 284 nm.\nPlasma Level (μg/ml) of Indoprofen in Mice,\nAdministered Orally as a Suspension*\n*Aqueous suspension containing 0.5% methylcellulose and 0.06% surface\n^a The apparent rate of elimination, Ke is calculated using a on\ncompartment open model system as described by J. G. Wagner\nBiopharmaceutics and Relevant Pharmacokinetics, page 180, Hamilton Press"}, "[6]": {"conditions": "humans; cited from earlier work"}}, "note": "“Also recorded” adds a separate entry of the source.", "data": [{"smiles": "CC(C(=O)O)c1ccc(N2Cc3ccccc3C2=O)cc1", "note": "(stereo not drawn) [indoprofen, alpha-[4-(1-oxo-2-isoindolinyl)-phenyl]propionic acid]", "values": [{"measurement": "plasma peak height and bioavailability (total area under the plasma curve) as dose is increased", "setting": "[1]", "result": "increases in a linear fashion"}, {"measurement": "solubility", "setting": "[2]", "result": "poorly soluble"}, {"measurement": "safety in prolonged therapy", "setting": "[3]; clinical studies, above 800 mg., especially 1200 mg., per day", "result": "has not been shown to be safe for prolonged therapy"}, {"measurement": "safety classification", "setting": "[3]; clinical studies, up to 800 mg. per day", "result": "safe dose"}, {"measurement": "effectiveness in osteoarthritis", "setting": "[3]; man, 800 mg. per day", "result": "effective in the treatment of osteoarthritis"}, {"measurement": "gastrointestinal ulceration and other side effects", "setting": "[3]; man, 800 mg. per day", "result": "minimal"}, {"measurement": "effectiveness in rheumatoid arthritis", "setting": "[3]; man, 1200 mg. per day", "result": "effective in the treatment of rheumatoid arthritis"}, {"measurement": "gastrointestinal ulceration and other side effects", "setting": "[3]; man, 1200 mg. per day", "result": "the incidence of gastrointestinal ulceration and other side effects are recognized"}, {"measurement": "analgesic effect", "setting": "[3]; man, 100 to 600 mg. per day", "result": "maximum analgesic effect"}, {"measurement": "side effects", "setting": "[3]; man, 100 to 600 mg. per day", "result": "minimal or negligible side effects"}, {"measurement": "anti-inflammatory and analgesic properties", "setting": "[4]", "result": "excellent anti-inflammatory and analgesic properties"}, {"measurement": "half-life", "setting": "[5]; mouse, plasma, oral suspension", "result": 5.4, "unit": "h"}, {"measurement": "concentration at 2 h", "setting": "[5]; mouse, plasma, oral suspension, 2 hours, mean and standard error, read-out: Plasma Level of Indoprofen", "result": "2490 ± 450", "unit": "ng/mL"}, {"measurement": "concentration at 4 h", "setting": "[5]; mouse, plasma, oral suspension, 4 hours, mean and standard error, read-out: Plasma Level of Indoprofen", "result": "1620 ± 150", "unit": "ng/mL"}, {"measurement": "concentration at 8 h", "setting": "[5]; mouse, plasma, oral suspension, 8 hours, mean and standard error, read-out: Plasma Level of Indoprofen", "result": "890 ± 240", "unit": "ng/mL"}, {"measurement": "concentration at 16 h", "setting": "[5]; mouse, plasma, oral suspension, 16 hours, mean and standard error, read-out: Plasma Level of Indoprofen", "result": "490 ± 170", "unit": "ng/mL"}, {"measurement": "concentration at 32 h", "setting": "[5]; mouse, plasma, oral suspension, 32 hours, mean and standard error, read-out: Plasma Level of Indoprofen", "result": 430, "unit": "ng/mL"}, {"measurement": "k el", "setting": "[5]; mouse, plasma, oral suspension, one compartment open model, read-out: Ke, apparent rate of elimination (converted)", "result": "3.54e-05", "unit": "s⁻¹"}, {"measurement": "AUC", "setting": "[5]; mouse, plasma, oral, 1% of the body weight, read-out: area under the plasma curve", "result": 24500, "unit": "ng·h/mL"}, {"measurement": "Cmax", "setting": "[5]; mouse, plasma, oral, 1% of the body weight, read-out: plasma peak height", "result": 2500, "unit": "ng/mL"}, {"measurement": "bioavailability, pure drug versus microencapsulated form", "setting": "[5]; oral", "result": "bioequivalent; also recorded: equivalent bioavailability"}, {"measurement": "plasma peak height, pure drug relative to microencapsulated drug", "setting": "[5]; oral, listed as pure drug", "result": "two times that of microencapsulated form; also recorded: two times that of the microencapsulated drug"}, {"measurement": "plasma half-life (t 1/2)", "setting": "[6]", "result": "2.1 to 5.4", "unit": "h"}]}]}
